Data taken from publication PMC5663395, “Chemical Validation of Methionyl-tRNA Synthetase as a Druggable Target in Leishmania donovani” (ACS Infectious Diseases, 2017).
Read-outs that look alike come from different tables or passages of the source.

Legend:
[1] = test system: L. donovani axenic amastigotes; test: Leishmania axenic amastigote viability assay; format: cell-based, Leishmania donovani; conditions: read-out: Leishmania Axenic Amastigote EC50
Procedure: (§1) carried out as described above using 5%, 10% and 20% FBS in the media. To examine the effect of the methionine concentration on the potency of DDD806905 parasites were grown in the presence of drug and in the presence (or absence) of 20-fold excess methionine (0.3 g/l). IC50 curve fitting was undertaken in GraFit version 6.0 (Erithacus Software) using a four-parameter logistic dose-response curve (equation 6), with s the slope.
(§2) Leishmania Axenic Amastigote Assay
(§3) The Leishmania axenic amastigote assay was performed using the method published in Nühs et al 15.
(§4) Leishmania Intracellular Amastigote Assay
(§5) The intramacrophage Leishmania assay was performed using a modified version of the method described in De Rycker et al 16. […]
amphotericin B was included. Controls were as follows: columns 11 and 12: DMSO, columns 23 and 24: amphotericin B (final concentration 2 µM). 350 nl of compound was pre-dispensed into 384-well sterile intermediary plates. To the intermediary plates, 35 µl of THP-1 media was added and plates were shaken for >5 min to ensure complete mixing. THP-1 cells (8,000 per well, 50 µl) were plated into black clear-bottom 384-well plates (Corning) in presence of 20 nM phorbol 12-myristate 13- […]
in a humidified incubator for 75 h. The cells were then washed with 450 µl sterile phosphate buffered saline (PBS) supplemented with 1 mM CaCl2, 0.5 mM MgCl2, 0.1% (w/v) bovine serum albumin (PBS-A) and amastigotes were added to all wells at a multiplicity of infection of 5 (40,000 amastigotes per well). After 40 min at room temperature, plates were returned to the incubator.
Amastigotes were incubated in the presence of THP-1 macrophages for 16 h. Any remaining extracellular amastigotes were subsequently removed by washing with PBS-A followed by addition of 25 µl of the compound pre-dilutions using an Ipette-pro pipetting station (FluidX). The final dilution of each compound was 200-fold. Plates were incubated for 96 h and then washed (250 µl PBS-A) and fixed (4 % (v/v) formaldehyde-PBS, 30 min, room temperature). After fixation, the wells were washed with 250 µl PBS, stained (10 µg/ml DAPI, 0.4 µg/mL HCS Cellmask Deep Red in PBS + 0.1% (v/v) Triton X-100, 30 min, room temperature) and washed with 250 µl PBS. Finally, PBS + 0.05% (v/v) thimerosal was added to the wells, the plates were sealed and imaged on a high-content microscope (GE IN Cell 2000) using a 10x objective. Image analysis was carried out with GE IN Cell Analyzer 1000 Workstation using the “Multi Target Analysis” module. For each well, i) THP-1 cell count (cytotoxicity readout) and ii) average number of amastigotes per cell (potency readout) were […]

LdMetRS = LdMetRS (Leishmania donovani, UniProt A0A3Q8IBX2); test: LdMetRS biochemical enzyme assay (BIOMOL Green); conditions: read-out: LdMetRS IC50
Chain of LdMetRS (A0A3Q8IBX2 entry or part of it): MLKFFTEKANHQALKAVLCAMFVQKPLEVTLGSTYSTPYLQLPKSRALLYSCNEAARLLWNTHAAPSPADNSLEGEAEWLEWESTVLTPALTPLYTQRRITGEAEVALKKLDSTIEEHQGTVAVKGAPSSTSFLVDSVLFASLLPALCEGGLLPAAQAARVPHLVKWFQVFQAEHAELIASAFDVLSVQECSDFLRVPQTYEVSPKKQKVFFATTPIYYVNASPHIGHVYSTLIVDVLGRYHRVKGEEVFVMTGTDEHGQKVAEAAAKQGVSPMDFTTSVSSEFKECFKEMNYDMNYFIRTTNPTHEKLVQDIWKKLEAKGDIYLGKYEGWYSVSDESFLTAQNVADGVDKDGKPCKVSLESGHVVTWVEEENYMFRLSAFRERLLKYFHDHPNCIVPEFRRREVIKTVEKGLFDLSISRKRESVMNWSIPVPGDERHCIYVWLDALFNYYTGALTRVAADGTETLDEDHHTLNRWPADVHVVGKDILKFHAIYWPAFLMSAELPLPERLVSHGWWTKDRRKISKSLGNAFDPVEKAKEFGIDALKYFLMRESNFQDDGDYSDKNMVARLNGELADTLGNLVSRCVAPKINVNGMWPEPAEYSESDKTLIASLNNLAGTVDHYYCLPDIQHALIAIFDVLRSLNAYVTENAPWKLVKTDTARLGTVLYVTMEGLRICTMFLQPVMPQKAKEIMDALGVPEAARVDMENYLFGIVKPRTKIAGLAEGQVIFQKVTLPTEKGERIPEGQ
Procedure: LdMetRS Assay Development and Kinetic Parameter Determinations
Activity of the LdMetRS enzyme was determined by monitoring levels of pyrophosphate released during the first step of the enzymatic reaction. The pyrophosphate formed was converted to two inorganic phosphate molecules using a pyrophosphatase enzyme and levels of the resulting phosphate molecules measured using the BIOMOL® Green reagent (Enzo Life Sciences) 2.
Following optimization of the assay buffer and determination of the enzyme linearity, 384-well plate based assays were carried out at room temperature in a 50 μl reaction volume containing 30 mM Tris, pH 8.0, 140 mM NaCl, 30 mM KCl, 40 mM MgCl2, 0.01% (v/v) Brij-35, 1 mM DTT, 1 U/ml pyrophosphatase, 50 nM recombinant LdMetRS, and varying concentrations of substrates. Michaelis constants for the ATP and methionine substrates were determined in an end point assay using the above buffer and enzyme conditions. Data were fitted to the modified Michaelis-Menten equations […]
Equation 1 (Hill equation): […]
Equation 2 (High substrate inhibition Michaelis-Menten equation): […]
LdMetRS Inhibitor Studies
All test compounds were solubilized in 100% DMSO to a concentration of 10 mM. To generate IC50 data for the compounds, assay ready plates containing 10-point inhibitor curves (half-log serial dilutions) were prepared using an Echo® 550 (Labcyte).
Following preparation of the inhibitor curves, assays were carried out at room temperature in clear, flat bottom, polystyrene, 384-well plates (Greiner). Each assay was performed in a 50 μl reaction volume containing 30 mM Tris; pH 8.0, 140 mM NaCl, 30 mM KCl, 40 mM MgCl2, 0.01% (v/v) Brij-35, 1 mM DTT, 1 U/ml pyrophosphatase, 50 nM recombinant LdMetRS, 50 µM methionine and 100 µM […]
Assays were performed by adding 25 μl buffer with enzyme to assay plates (with buffer only added to ‘no enzyme’ control wells) before the reaction was initiated with the addition of a 25 μl mix containing methionine, ATP and pyrophosphatase to all wells. Following a 120 min reaction at room temperature the assay was stopped with the addition of 50 μl BIOMOL® Green. The BIOMOL® Green signal was allowed to develop for 30 min before the absorbance of each well was read at 650 nm using an EnVision multilabel plate reader (PerkinElmer Life Sciences). All liquid dispensing steps were carried out using a Thermo Scientific WellMate dispenser (Matrix).
ActivityBase from IDBS (version 8.0.5.4) was used for data processing and analysis. All IC50 curve fitting was undertaken using ActivityBase XE (version 7.7.1) from IDBS. A four-parameter logistic dose-response curve was utilized with prefit used for all four parameters.
For DDD806905 Kiapp determinations, data fitting to the Morrison equation (equation 3) was carried out using GraFit v6.0 (Erithacus Software). It should be noted that data for fitting to the Morrison equation was normalised to a ‘100 µM DDD806905’ control rather than a ‘no enzyme’ control as […]
Equation 3 (Morrison equation): […]
vi = K1 −−([ ] [ ]ET+IT+Ki)−([ ] [ ]ET+IT+i)[ ] [ ]TIE4T
LdMetRS Mode of Inhibition Studies
To establish the mode of inhibition of DDD806905, data sets (generated using the BIOMOL® Green assay platform previously described) were collected by varying both the inhibitor and substrate concentrations. Using GraFit v6.0 (Erithacus Software) each data set was individually fitted to the Michaelis-Menten equation or the modified high substrate inhibition Michaelis-Menten equation described above (equation 2), and the resulting Lineweaver-Burk plots were examined for diagnostic […]
Data sets were then globally fitted to the appropriate model (with equations 4 and 5 used for […]
If more than one model appeared possible, then data were fitted to both and examined for significance using the F-test function in GraFit.

[2] = test system: L. donovani promastigotes; test: Leishmania promastigote viability assay; format: cell-based, Leishmania donovani; conditions: Supplementary Table 1; read-out: Leishmania Promastigote EC50
Procedure: After suitable sample preparation, the
In vivo Leishmaniasis Animal Model […]
administered twice daily over the same interval.
Parasite load is expressed in Leishman-
Knock-out and overexpressor generation
Leishmania Promastigote Assay
Serum shift experiments were […]
as §1, §2, §3, §4, §5
amphotericin B was included. Controls were as follows: columns 11 and 12: DMSO, columns 23 and 24: amphotericin B (final concentration 2 µM). 350 nl of compound was pre-dispensed into 384-well sterile intermediary plates. To the intermediary plates, 35 µl of THP-1 media was added and plates were shaken for >5 min to ensure complete mixing. THP-1 cells (8,000 per well, 50 µl) were plated into black clear-bottom 384-well plates (Corning) in presence of 20 nM phorbol 12-myristate 13-

THP-1 lysosomes = test: Lysosomotropism assay (LysoTracker Red competition); format: cell-based, human; conditions: PMA-differentiated THP-1 cells, 30 min
Procedure: calculated, both in terms of pEC50 values. MIC (minimum inhibitory concentration) values are defined as the lowest concentration tested at which maximal inhibition is reached.
THP-1 cells were differentiated in 96-well plates with PMA as described above. Following differentiation the cells were treated for 30 min with dose-response curves of test compounds in presence of 100 nM LysoTracker Red DND-99 (Thermo Fisher) and 5 µg/ml Hoechst 33342. Next cells were washed 3 times with Hanks Buffered Saline Solution (Gibco) and imaged on a Perkin Elmer Operetta system. An image analysis algorithm to measure mean Lysotracker Red DND-99 intensity per cell was developed in Columbus. Mean Intensity was normalised using a no dye control (100% effect) and DMSO treated wells stained with Lysotracker Red DND-99 (0% effect control). Dose-response curves were fitted for the test compounds using a four-parameter equation (equation 5 above) and constrained to 0 and 100% where necessary.
To measure the pKa of DDD806905, a fast UV-metric method was performed using a Sirius T3 instrument (Sirius Analytical, U.K.). The calculation of the pKa was determined using the Sirius T3 refine software (Sirius Analytical, U.K.). In brief, the UV-metric pKa method is based on measuring pH during an acid-base titration and monitoring UV absorbance shift. The ionisation curve (Bjerrum curve) was then used to determine the pH where exactly 50 % of neutral and 50 % of ionised species was present. DDD806905 must be fully dissolved throughout the titration and so the titration is set to start at the pH where DDD806905 is in its fully ionised state. The appearance of precipitate was monitored throughout the experiment by a turbidity sensing device. […] The pKas of DDD806905 was determined at the pH where there was maximal change in UV absorbance with respect to pH. […]
LogD7.4 values were quantified using a Sirius T3 instrument (Sirius Analytical, U.K.). […] The instrument software calculated the pH of each data point using mass and charge balance equations and then fitted this theoretical data to the experimental data. […]

EC50 ([1]; Leishmania donovani, Table 1)	IC50 (LdMetRS; Table 1)	SMILES	EC50 ([1]; Supplementary Table 1)	IC50 (LdMetRS; Supplementary Table 1)	EC50 [2]	competition with lysotracker red accumulation in THP-1 lysosomes (THP-1 lysosomes)
–	–	Clc1ccc(Cl)c2[nH]c(CNCCCNc3nc4ccccc4[nH]3)cc12 [Compound 3]	> 50 µM	69 µM	7.1 µM	–
–	–	Cc1c(CNCCCNc2nc3ccccc3[nH]2)[nH]c2cc(Cl)cc(Cl)c12 [Compound 4]	38 µM	2.8 µM	1.3 µM	–
–	–	FC(F)(F)c1cc(C(F)(F)F)c2cc(CNCCCNc3nc4ccccc4[nH]3)[nH]c2c1 [Compound 5]	29 µM	46 µM	6.2 µM	–
–	–	COc1cccc2[nH]c(NCCCNCc3cc(Br)cc(Br)c3)nc12 [Compound 7]	> 50 µM	79 µM	19 µM	–
–	–	OCc1c(Cl)cc(Cl)cc1CNCCCNc1nc2ccccc2[nH]1 [Compound 8]	> 50 µM	47 µM	33 µM	–
–	–	COc1cc(C(F)(F)F)cc2[nH]c(CNCCCNc3nc4ccccc4[nH]3)cc12 [Compound 9]	> 50 µM	> 100 µM	7.8 µM	–
–	–	COc1cc(C(F)(F)F)c2cc(CNCCCNc3nc4ccccc4[nH]3)[nH]c2c1 [Compound 10]	> 50 µM	4.8 µM	6.5 µM	–
–	–	Brc1cc(Br)c2c(c1)C(NCCCNc1nc3ncccc3[nH]1)CCN2 (stereo not shown) [Compound 11]	6.2 µM	0.17 µM	0.54 µM	–
–	–	Cc1cc(C)c2cc(CNCCCNc3nc4ccccc4[nH]3)[nH]c2c1 [Compound 12]	> 50 µM	5.6 µM	9.5 µM	–
–	–	CCOc1c(CNCCCNc2nc3ccccc3[nH]2)cc(Br)cc1OC [Compound 13]	> 50 µM	37 µM	19 µM	–
–	–	CCOc1c(Br)cc(C)cc1CNCCCNc1nc2ccccc2[nH]1 [Compound 14]	> 50 µM	12 µM	7.6 µM	–
–	–	CCOc1c(Cl)cc(Cl)cc1CNCCCNc1nc2ccccc2[nH]1 [Compound 15]	> 50 µM	5.4 µM	4.1 µM	–
–	–	CCOc1c(Br)cc(Cl)cc1CNCCCNc1nc2ccccc2[nH]1 [Compound 16]	> 50 µM	5.9 µM	4.9 µM	–
–	–	OCCn1c(CNCCCNc2nc3ccccc3[nH]2)cc2c(Cl)cc(Cl)cc21 [Compound 17]	19 µM	0.38 µM	0.87 µM	–
> 50 µM	3.3 µM	O=C(NCCCNc1nc(=O)c2ccccc2[nH]1)c1cc2c(Cl)cc(Cl)cc2[nH]1 [Compound 25]	–	–	–	–
38 µM	0.74 µM	O=c1nc(NCCCNCc2cc(Cl)cc(Cl)c2)[nH]c2ccccc12 [Compound 26]	–	–	–	–
22 µM	2.8 µM	O=C(CCNc1nc(=O)c2ccccc2[nH]1)NCc1cc(Cl)cc(Cl)c1 [Compound 27]	–	–	–	–
> 50 µM	> 100 µM	O=c1nc(NCCCCCc2cc(Cl)cc(Cl)c2)[nH]c2ccccc12 [Compound 29]	–	–	–	–
18 µM	0.03 µM	CN(CCCNc1nc(=O)c2ccccc2[nH]1)Cc1cc2c(Cl)cc(Cl)cc2[nH]1 [Compound 30]	–	–	–	–
> 50 µM	22 µM	O=c1nc(OCCCNCc2cc3c(Cl)cc(Cl)cc3[nH]2)[nH]c2ccccc12 [Compound 31]	–	–	–	–
–	–	CCN(CC)CCCC(C)Nc1ccnc2cc(Cl)ccc12 (stereo not shown) [chloroquine, reference compound]	–	–	–	did compete with lysotracker red accumulation
